Tests used:
[1] = tested on: rape; test: Greenhouse pre-emergence GR15/GR85 selectivity test; assay type: in vivo; settings: Table XV
Text: (§1) A good grade of top soil is placed in aluminum pans and compacted to a depth of three-eighths to one-half inch from the top of the pan. On the top of the soil is placed a number of seeds or vegetative propagules of various plant species. The soil required to level fill the pans after seeding or adding vegetative propagules is weighed into a pan. The soil and a known amount of the active ingredient applied in a solvent or as a wettable powder suspension are thoroughly mixed, and used to cover the prepared pans. After treatment, the pans are given an initial overhead irrigation of eater, equivalent to one-fourth inch (0.64 cm) rainfall, then watered by subirrigation as need to give adequate moisture for germination and growth. As an alternative procedure, the overhead irrigation may be omitted. Observations are made about 2-3 weeks after seeding and treatment.
(§2) In the discussion and tables of data below, reference is made to herbicide application rates symbolized as "GR15 " and "GR85 "; these rates are given in kilograms per hectare (kg/ha) which are convertible into pounds per acre (lbs/A) by dividing the kg/ha rate by 1.12.
(§3) A further guide to the effectiveness of a chemical as a selective herbicide is the "selectivity factor" ("SF") for a herbicide in given crops and weeds. The selectivity factor is a measure of the relative degree of crop safety and weed injury and is expressed in terms of the GR15 /GR85 ratio, i.e., the GR15 rate for the crop divided by the GR85 rate for the weed, both rates in kg/ha (lb/A). In the tables below, selectivity factors are shown in parenthesis following the GR85 rate for each weed; the symbol "NS" indicates "non-selective". Marginal or undetermined selectivity is indicated by a dash (--).
(§4) Additionally, pre-emergence herbicidal data from other tests have established that compounds according to this invention also selectively suppress quackgrass, yellow nutsedge and/or other weeds in one or more of the crops cotton, peanuts, bush beans and/or rape. For example, in Table VI are presented data showing the herbicidal selectivity of the compounds of Examples 1 and 2 against quackgrass in rape and snap beans. Unless otherwise noted; greenhouse tests in Table VI and in other tables below involved herbicide treatments by soil incorporation and an initial overhead irrigation followed by subirrigation as described above.
(§5) In another greenhouse test, the compounds of Examples 3-5, 9 and 10 were tested for their herbicidal efficacy against a variety of resistant annual and perennial weeds in rape.

[2] = tested on: wild proso millet; test: as above; assay type: in vivo, wild proso millet (panicum milicaeum); settings: Table XVI
Text: as §1, with “After treatment, the pans are given an initial overhead irrigation of eater, equivalent to one-fourth inch (0.64 cm) rainfall, then watered by subirrigation as need to give adequate moisture for germination and growth.” left out
as §3
(§6) Unless otherwise noted; greenhouse tests in Table VI and in other tables below involved herbicide treatments by soil incorporation and an initial overhead irrigation followed by subirrigation as described above.

[3] = tested on: Yellow Nutsedge; test: as above; assay type: in vivo
[4] = tested on: Quackgrass; test: as above; assay type: in vivo
[5] = tested on: Quackgrass; test: Herbicidal effect in a variety of soil types; assay type: in vivo; settings: for selectivity factor (GR15/GR85): in soybeans
Text: The herbicide treatments were by soil incorporation with seeds planted 0.375 in (0.95 cm) deep, with 0.25 in (0.64 cm overhead irrigation. Observations were made about three weeks after treatment. Selectivity factors are shown in parenthesis.

[6] = tested on: corn; test: Greenhouse pre-emergence GR15/GR85 selectivity test; assay type: in vivo
How it was run: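 Active ingredient mixed into cover soil over seeded pans (pre-emergence soil incorporation), initial overhead irrigation equal to 0.64 cm rainfall, then subirrigation. Scored about 2-3 weeks after seeding; GR15 (crop) and GR85 (weed) rates in kg/ha, selectivity factor = crop GR15 / weed GR85.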

[7] = tested on: purple nutsedge; test: as above; assay type: in vivo; settings: Table XV; for selectivity factor (GR15/GR85): in rape
Text: as §1, §2, §3, §4
In other greenhouse tests, compounds according to this invention have shown selective control of a variety of annual and perennial weeds in various crops. As further illustrative, the compound of Example 1 selectively controlled purple nutsedge in both corn nd soybeans, the respective crop/weed GR15 /GR85 ratios (expressed in kg/ha) being 0.67/0.25 (S.F.=2.7) in corn and 1.1/0.25 (S.F.=4.5) in soybeans. The compound of Example 8 has shown selective control of yellow nutsedge and quackgrass in corn and soybeans. The respective crop/yellownutsedge GR15 /GR85 ratios being >2.2/0.95 (S.F.=2.5) in corn; 2.2/0.5 (SF=4.5) in soybeans and the respective GR15 /GR85 ratios for both corn and soybeans in quackgrass being >2.2/0.5 (S.F.=4.5). In a test against yellow nutsedge in cotton, the GR15 /GR85 ratio (average of two replicates) was 2.0/0.95 (S.F.=2).
as §5

[8] = tested on: soybeans; test: Herbicidal effect in a variety of soil types; assay type: in vivo
[9] = tested on: red rice; test: Greenhouse pre-emergence GR15/GR85 selectivity test; assay type: in vivo; settings: Table XVI
Text: as §1, with “After treatment, the pans are given an initial overhead irrigation of eater, equivalent to one-fourth inch (0.64 cm) rainfall, then watered by subirrigation as need to give adequate moisture for germination and growth.” left out
as §3, §6

[10] = yellow nutsedge in corn, Table IV, Replicate #2
[11] = yellow nutsedge in soybeans, Table IV, Replicate #2
[12] = quackgrass in corn, Table IV, Replicate #2
[13] = quackgrass in soybeans, Table IV, Replicate #2
[14] = Drummer silty clay, Table XVII B
[15] = Wabash silty clay, Table XVII B
[16] = Drummer silty clay, Table XVII C
[17] = Wabash silty clay, Table XVII C

SMILES: Cc1cccc(C(F)(F)F)c1N(COC(C)C)C(=O)CCl [Example 4, N--(isopropoxymethyl)-2'-trifluoromethyl-6'-methyl-2-chloroacetanilide]
- GR15 Rate [1]: > 1.12 Kg/Ha
- GR85 Rate [2]: 0.47 Kg/Ha
- selectivity factor (GR15/GR85) ([2]; in lima beans): > 2.4
- selectivity factor (GR15/GR85) ([2]; in peanuts): 2.1
- GR85 ([3]; Table IV, Replicate #1): 0.28 Kg/Ha
- GR85 ([3]; Table IV, Replicate #2): 0.22 Kg/Ha
- selectivity factor (GR15/GR85) ([3]; yellow nutsedge in corn, Table IV, Replicate #1): 6
- selectivity factor (GR15/GR85) [3, 10]: 8.5
- selectivity factor (GR15/GR85) ([3]; yellow nutsedge in soybeans, Table IV, Replicate #1): 4
- selectivity factor (GR15/GR85) [3, 11]: 7.5
- GR85 ([4]; Table IV, Replicate #1): 0.33 Kg/Ha
- GR85 ([4]; Table IV, Replicate #2): 0.18 Kg/Ha
- selectivity factor (GR15/GR85) ([4]; quackgrass in corn, Table IV, Replicate #1): 5
- selectivity factor (GR15/GR85) [4, 12]: 11
- selectivity factor (GR15/GR85) ([4]; quackgrass in soybeans, Table IV, Replicate #1): 3
- selectivity factor (GR15/GR85) [4, 13]: 9.5
- GR85 [5, 14]: 0.11 Kg/Ha
- GR85 ([5]; Florida muck, Table XVII B): 0.67 Kg/Ha
- GR85 ([5]; Florida sand, Table XVII B): 0.25 Kg/Ha
- GR85 ([5]; Ray silt loam, Table XVII B): 0.13 Kg/Ha
- GR85 ([5]; Sarpy silty clay, Table XVII B): 0.39 Kg/Ha
- GR85 [5, 15]: 0.24 Kg/Ha
- selectivity factor (GR15/GR85) [5, 14]: 20
- selectivity factor (GR15/GR85) ([5]; Florida muck, Table XVII B): > 3
- selectivity factor (GR15/GR85) ([5]; Florida sand, Table XVII B): 9
- selectivity factor (GR15/GR85) ([5]; Ray silt loam, Table XVII B): 23
- selectivity factor (GR15/GR85) ([5]; Sarpy silty clay, Table XVII B): 5.5
- selectivity factor (GR15/GR85) [5, 15]: 12.5
- GR15 ([6]; Table IV, Replicate #1): 1.7 Kg/Ha
- GR15 ([6]; Table IV, Replicate #2): 2.0 Kg/Ha
- GR85 Rate [7]: 0.25 Kg/Ha
- selectivity factor (GR15/GR85) [7]: > 4.5
- GR15 [8, 14]: 2.2 Kg/Ha
- GR15 ([8]; Florida muck, Table XVII B): > 2.2 Kg/Ha
- GR15 ([8]; Florida sand, Table XVII B): 2.2 Kg/Ha
- GR15 ([8]; Ray silt loam, Table XVII B): 3.0 Kg/Ha
- GR15 ([8]; Sarpy silty clay, Table XVII B): 2.2 Kg/Ha
- GR15 [8, 15]: 3.0 Kg/Ha
- GR85 Rate [9]: 0.42 Kg/Ha
- selectivity factor (GR15/GR85) ([9]; in lima beans): > 2.7
- selectivity factor (GR15/GR85) ([9]; in peanuts): 2.3

SMILES: CCOCN(C(=O)CCl)c1c(CC)cccc1C(F)(F)F [Example 9, N--(ethoxymethyl)-2'-trifluoromethyl-6'-ethyl-2-chloroacetanilide]
- GR15 Rate [1]: 0.98 Kg/Ha
- GR85 Rate [2]: 0.56 Kg/Ha
- selectivity factor (GR15/GR85) ([2]; in lima beans): 1.3
- selectivity factor (GR15/GR85) ([2]; in peanuts): 1.6
- GR85 ([3]; Table IV, Replicate #2): 0.17 Kg/Ha
- GR85 ([3]; Table XII): 0.21 Kg/Ha
- GR85 ([3]; in cotton): 0.47 kg/ha
- S.F. (GR15/GR85) ([3]; in cotton): 1.5
- selectivity with respect to yellow nutsedge in rice ([3]; in rice): non-selective
- selectivity factor (GR15/GR85) [3, 10]: 13
- selectivity factor (GR15/GR85) ([3]; yellow nutsedge in corn, Table XII): 12
- selectivity factor (GR15/GR85) ([3]; yellow nutsedge in cotton, Table XII): 12
- selectivity factor (GR15/GR85) [3, 11]: 12.5
- selectivity factor (GR15/GR85) ([3]; yellow nutsedge in soybeans, Table XII): 9.5
- GR85 ([4]; Table IV, Replicate #2): 0.20 Kg/Ha
- GR85 ([4]; Table XIII): 0.36 Kg/Ha
- selectivity against quackgrass in wheat ([4]; in wheat): non-selective
- selectivity factor (GR15/GR85) [4, 12]: 11
- selectivity factor (GR15/GR85) ([4]; quackgrass in corn, Table XIII): 4.7
- selectivity factor (GR15/GR85) [4, 13]: 10.5
- selectivity factor (GR15/GR85) ([4]; quackgrass in soybeans, Table XIII): 4.7
- GR85 [5, 16]: 0.17 Kg/Ha
- GR85 ([5]; Florida muck, Table XVII C): 0.73 Kg/Ha
- GR85 ([5]; Ray silt loam, Table XVII C): 0.13 Kg/Ha
- GR85 ([5]; Sarpy silty clay, Table XVII C): 0.13 Kg/Ha
- GR85 [5, 17]: 0.24 Kg/Ha
- selectivity factor (GR15/GR85) [5, 16]: > 13
- selectivity factor (GR15/GR85) ([5]; Florida muck, Table XVII C): > 3
- selectivity factor (GR15/GR85) ([5]; Ray silt loam, Table XVII C): > 16.5
- selectivity factor (GR15/GR85) ([5]; Sarpy silty clay, Table XVII C): > 16.5
- selectivity factor (GR15/GR85) [5, 17]: 12.5
- GR15 ([6]; Table IV, Replicate #2): 2.2 Kg/Ha
- GR15 ([6]; Table XII): 2.5 Kg/Ha
- GR15 ([6]; Table XIII): 1.7 Kg/Ha
- GR85 Rate [7]: 0.19 Kg/Ha
- selectivity factor (GR15/GR85) [7]: 5.2
- GR15 [8, 16]: > 2.2 Kg/Ha
- GR15 ([8]; Florida muck, Table XVII C): > 2.2 Kg/Ha
- GR15 ([8]; Ray silt loam, Table XVII C): > 2.2 Kg/Ha
- GR15 ([8]; Sarpy silty clay, Table XVII C): > 2.2 Kg/Ha
- GR15 [8, 17]: 3.0 Kg/Ha
- GR85 Rate [9]: 0.42 Kg/Ha
- selectivity factor (GR15/GR85) ([9]; in lima beans): 1.8
- selectivity factor (GR15/GR85) ([9]; in peanuts): 2.1

Source: patent publication US4731109A, “Herbicidal 2-haloacetanilides” (Monsanto Company, priority 1982, dated 1988)
